This is an account of results in US10315996B2, “ROR gamma (RORγ) modulators” (LEAD PHARMA HOLDING B.V., priority 2015, dated 2019).

Structures are written as SMILES.

In this assay the target is T1, RORγ (Homo sapiens, UniProt P51449).
T1 construct: expressed in transfected cells; host or cells: 293FT cells (Invitrogen), expression vector pFN26A (Promega)
T1 sequence (P51449 269-508 limits assumed): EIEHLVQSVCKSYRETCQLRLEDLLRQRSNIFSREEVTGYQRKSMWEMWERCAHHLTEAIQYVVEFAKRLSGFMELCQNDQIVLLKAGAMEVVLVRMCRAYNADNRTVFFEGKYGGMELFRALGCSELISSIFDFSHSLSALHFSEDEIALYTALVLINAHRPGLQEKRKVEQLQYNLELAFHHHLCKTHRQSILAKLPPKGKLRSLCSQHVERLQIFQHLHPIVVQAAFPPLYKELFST
The assay can be described thus: RORγ GAL4 reporter gene assay. The following applies: inhibition of RORγ activity, GAL4-RORγ-LBD luciferase reporter in 293FT cells, overnight incubation; read-out: mean pIC50 (converted). Type of assay: cell-based. How it is done:
Example inhibitors 1-166 were tested for their ability to inhibit RORγ activity in a RORγ GAL4 reporter gene assay. The assay procedure and results are described below.
RORγ GAL4 Reporter Gene Assay Description
A GAL4 one-hybrid reporter system employing luciferase readout was established to determine inhibition of RORγ in 293FT cells. The RORγ ligand-binding domain (LBD) was fused to the yeast GAL4 DNA binding domain (DBD) and placed under the control of the human cytomegalovirus (CMV) immediate early promoter, using expression vector pFN26A (Promega) and standard recombinant DNA cloning methods. To serve as a control in the assay, a similar vector was generated in which the GAL4-DBD was fused to Herpes simplex virus protein 16 (VP16), a constitutive transcriptional activator.
To monitor the inhibitory effect of compounds on RORγ, a transcriptional reporter construct was used. The pGL4.35 vector (Promega) contains nine copies of the GAL4 Upstream Activator Sequence (UAS). This sequence drives the transcription of the luciferase reporter gene luc2P in response to binding of a fusion protein containing the GAL4 DNA binding domain, as for example expressed by the GAL4-RORγ-LBD and GAL4-VP16 expression vectors described above. To allow a GAL4 fusion protein to drive the expression of the luciferase reporter, the pGL4.35 expression vector and the appropriate GAL4 fusion protein expression vector were bulk transfected in the 293FT cells using standard transfection techniques.
The day after transfection, cells were plated into 96 well plates, test compound was added and the plates were incubated overnight. Subsequently, the firefly luciferase activity was quantified using luciferase detection reagent and luminescence readout.
Detailed Assay Description
293FT cells (Invitrogen) were transfected with a GAL4 fusion protein expression vector (as described above) and the transcriptional reporter construct (pGL4.35, Promega). 60 μL of TransIT-293 transfection reagent (Mirus Bio) was added drop wise to 1500 μl Opti-MEM I Reduced Serum Medium (Invitrogen) and incubated at room temperature (RT) for 5 to 20 minutes. 1500 μL of this reagent mixture was added to 5 μg of GAL4 fusion protein expression vector and 5 μg of the transcriptional reporter construct, and incubated at RT for 20 minutes.
To harvest 293FT cells from a T75 flask, first the culture medium was taken off the cells. Subsequently, the cells were washed with Phosphate Buffered Saline (PBS) (Lonza), after which the PBS was removed. To dissociate the cells, 1 ml of TrypLE Express (Invitrogen) was added to the flask, followed by incubation at RT until the cells visually started to detach. Cells were collected in 5 mL of assay medium (DMEM culture medium (Lonza), 10% dialyzed FBS (Invitrogen) and Pen/Strep (Lonza)) to achieve a single cell suspension. 10×10^6 cells were spun down and re-suspended in 10 mL of assay medium. Subsequently, the cell suspension was added to the transfection mix tube, and then transferred as a whole to a T75 flask (Greiner), followed by overnight (16-24 hours) incubation at 37° C. and 5% CO2.
For compound screening, the cells were harvested (as described above) and counted. 13×10^6 cells were spun down, the supernatant was aspirated and the cells were re-suspended in 17.3 mL of assay medium obtaining a cell suspension of 0.75×10^6 cells/mL. 80 μL of cell suspension (60,000 cells) was plated per well into a white, flat bottom, tissue culture treated, 96 well screening plates (Greiner).
Test compounds were diluted, starting from a 10 mM dimethylsulfoxide (DMSO) stock solution, to serial dilutions in DMSO at 500× the final test concentration. Subsequently, these solutions were diluted to 5× the final test concentration in two 10-fold-dilution steps in assay medium. The final DMSO concentration of the 5× test compound solution was 1%. […]
Consider `CCN(C(=O)c1ccc(NC(=O)Cc2ccc(S(=O)(=O)CC3CC3)nc2)cc1F)c1ccccc1` [Example 156, 4-[2-(6-cyclopropylmethanesulfonylpyridin-3-yl)acetamido]-N-ethyl-2-fluoro-N-phenylbenzamide], for which the IC50 is at most 100 nM. For `CC(C)(C)N(C(=O)c1ccc(NC(=O)Cc2ccc(S(=O)(=O)CC3CC3)cc2)c(F)c1)c1ccccc1` [Example 134, N-tert-butyl-4-[2-(4-cyclopropylmethanesulfonylphenyl)acetamido]-3-fluoro-N-phenylbenzamide], the IC50 was at most 10 nM. To `CN(Cc1ccccc1)C(=O)c1ccc(NC(=O)Cc2ccc(S(=O)(=O)CC3CC3)cc2)cc1` [Example 5, N-benzyl-4-[2-(4-cyclopropylmethanesulfonylphenyl)acetamido]-N-methylbenzamide] belongs at most 100 nM; to `O=C(Cc1ccc(S(=O)(=O)CC2CC2)cc1)Nc1ccc(C(=O)N(CC(F)(F)F)c2ccccc2)c(Cl)c1` [Example 123, 2-chloro-4-[2-(4-cyclopropylmethanesulfonylphenyl)acetamido]-N-phenyl-N-(2,2,2-trifluoroethyl)benzamide], at most 10 nM. As to `CCN(C(=O)c1ccc(NC(=O)Cc2ccc(S(=O)(=O)CC3CC3)cc2)cc1)c1cccc(C(=O)OC)c1` [Example 30, methyl 3-{N-ethyl-4-[2-(4-cyclopropylmethanesulfonylphenyl)acetamido]benzamido}benzoate], the IC50 was at most 100 nM. Take `CCN(C(=O)c1ccc(NC(=O)Cc2ccc(S(=O)(=O)CC3CC3)cc2)cc1C)c1ccccc1` [Example 162, 4-[2-(4-cyclopropylmethanesulfonylphenyl)acetamido]-N-ethyl-2-methyl-N-phenylbenzamide]: the IC50 was at most 100 nM. On to `CCN(C(=O)c1ccc(NC(=O)Cc2ccc(S(=O)(=O)CC3CC3)nc2)cc1Cl)c1ccccc1` [Example 157, 2-chloro-4-[2-(6-cyclopropylmethanesulfonylpyridin-3-yl)acetamido]-N-ethyl-N-phenylbenzamide], for which the IC50 is at most 100 nM.

Turning to `CC(C)(C1CCCO1)N(C(=O)c1ccc(NC(=O)Cc2ccc(S(=O)(=O)CC3CC3)cc2)cc1)c1ccccc1` (stereo not shown) [Example 135, 4-[2-(4-cyclopropylmethanesulfonylphenyl)acetamido]-N-[2-(oxolan-2-yl)propan-2-yl]-N-phenylbenzamide], the IC50 is at most 100 nM. For `O=C(Cc1ccc(S(=O)(=O)CC2CC2)cc1)Nc1ccc(C(=O)N[C@H](c2ccc(Cl)cc2)C(F)(F)F)cc1` [Example 76, N-[(1R)-1-(4-chlorophenyl)-2,2,2-trifluoroethyl]-4-[2-(4-cyclopropylmethanesulfonylphenyl)acetamido]benzamide], the IC50 is at most 1000 nM. On to `O=C(Cc1ccc(S(=O)(=O)CC2CC2)cc1)Nc1ccc(C(=O)N(c2ccccc2)C2CCC2)cc1` [Example 141, N-cyclobutyl-4-[2-(4-cyclopropylmethanesulfonylphenyl)acetamido]-N-phenylbenzamide], for which the IC50 was at most 10 nM. For the compound `CCN(C(=O)c1ccc(NC(=O)Cc2ccc(S(=O)(=O)NC3CC3)cc2)cc1F)c1ccccc1` [Example 111, 4-{2-[4-(cyclopropylsulfamoyl)phenyl]acetamido}-N-ethyl-2-fluoro-N-phenylbenzamide], the IC50 is at most 1000 nM. For `O=C(Cc1ccc(S(=O)(=O)CC2CC2)cc1)Nc1ccc(C(=O)N(c2ccccc2)C2CC2)cc1` [Example 140, N-cyclopropyl-4-[2-(4-cyclopropylmethanesulfonylphenyl)acetamido]-N-phenylbenzamide], the IC50 was at most 10 nM. As to `Cc1cc(NC(=O)Cc2ccc(S(=O)(=O)CC3CC3)cc2)ccc1C(=O)N(C)c1ccccc1C` [Example 163, 4-[2-(4-cyclopropylmethanesulfonylphenyl)acetamido]-N,2-dimethyl-N-(2-methylphenyl)benzamide], the IC50 is at most 10 nM. On to `CN(C(=O)c1ccc(NC(=O)Cc2ccc(S(=O)(=O)CC3CC3)cc2)cc1)c1ccccn1` [Example 17, 4-[2-(4-cyclopropylmethanesulfonylphenyl)acetamido]-N-methyl-N-(pyridin-2-yl)benzamide], for which the IC50 is at most 100 nM.

Take `CCN(C(=O)c1ccc(NC(=O)Cc2ccc(S(=O)(=O)CC3CC3)cc2)c(Cl)c1)c1ccccc1` [Example 53, 3-chloro-4-[2-(4-cyclopropylmethanesulfonylphenyl)acetamido]-N-ethyl-N-phenylbenzamide]: the IC50 is at most 100 nM.

For `Cc1ccc(N(C(=O)c2ccc(NC(=O)Cc3ccc(S(=O)(=O)CC4CC4)cc3)cc2)C(C)(C)CO)cc1` [Example 153, 4-[2-(4-cyclopropylmethanesulfonylphenyl)acetamido]-N-(1-hydroxy-2-methylpropan-2-yl)-N-(4-methylphenyl)benzamide], the IC50 was at most 100 nM. In the case of `CCCN(C(=O)c1ccc(NC(=O)Cc2ccc(S(=O)(=O)CC3CC3)cc2)cc1)c1nccs1` [Example 83, 4-[2-(4-cyclopropylmethanesulfonylphenyl)acetamido]-N-propyl-N-(1,3-thiazol-2-yl)benzamide], the IC50 was at most 10 nM. On to `O=C(Cc1ccc(S(=O)(=O)CC2CC2)cc1)Nc1ccc(C(=O)N2CCCC(c3ccccc3)C2)cc1` (stereo not shown) [Example 48, 2-(4-cyclopropylmethanesulfonylphenyl)-N-[4-(3-phenylpiperidine-1-carbonyl)phenyl]acetamide], for which the IC50 was at most 100 nM. Turning to `CC(C)CN(CC(C)C)C(=O)c1ccc(NC(=O)Cc2ccc(S(=O)(=O)CC3CC3)cc2)cc1` [Example 15, 4-[2-(4-cyclopropylmethanesulfonylphenyl)acetamido]-N,N-bis(2-methylpropyl)benzamide], the IC50 was at most 100 nM. As for `CCN(C(=O)c1ccc(NC(=O)Cc2ccc(S(=O)(=O)NC3CC3)cc2)c(C)c1)c1ccccc1` [Example 106, 4-{2-[4-(cyclopropylsuIfamoyl)phenyl]acetamido}-N-ethyl-3-methyl-N-phenylbenzamide], the IC50 was at most 1000 nM. In the case of `CC1(N(C(=O)c2ccc(NC(=O)Cc3ccc(S(=O)(=O)CC4CC4)cc3)cc2)c2ccccc2)CC1` [Example 142, 4-[2-(4-cyclopropylmethanesulfonylphenyl)acetamido]-N-(1-methylcyclopropyl)-N-phenylbenzamide], the IC50 is at most 10 nM. In the case of `O=C(Cc1ccc(S(=O)(=O)CC2CC2)cc1)Nc1ccc(C(=O)N2CCCCC2c2ccccc2)cc1` (stereo not shown) [Example 49, 2-(4-cyclopropylmethanesulfonylphenyl)-N-[4-(2-phenylpiperidine-1-carbonyl)phenyl]acetamide], the IC50 is at most 10 nM. On to `CCCN(C(=O)c1ccc(NC(=O)Cc2ccc(S(=O)(=O)CC3CC3)cc2)cc1)c1ccsc1` [Example 81, 4-[2-(4-cyclopropylmethanesulfonylphenyl)acetamido]-N-propyl-N-(thiophen-3-yl)benzamide], for which the IC50 is at most 10 nM.

As to `O=C(Cc1ccc(S(=O)(=O)CC2CC2)cc1)Nc1ccc(C(=O)N(c2ccccn2)C2CC2)cc1` [Example 137, N-cyclopropyl-4-[2-(4-cyclopropylmethanesulfonylphenyl)acetamido]-N-(pyridin-2-yl)benzamide], the IC50 is at most 100 nM. The same measure for `CC(C)(C)N(Cc1ccccc1)C(=O)c1ccc(NC(=O)Cc2ccc(S(=O)(=O)CC3CC3)cc2)cc1` [Example 113, N-benzyl-N-tert-butyl-4-[2-(4-cyclopropylmethanesulfonylphenyl)acetamido]benzamide]: at most 10 nM.
